According to paper PMC4977651, “Molecular features of biguanides required for targeting of mitochondrial respiratory complex I and activation of AMP-kinase” (BMC Biology, 2016):
“And” between values parts separate entries of the source, which are not always exact repeats. Identical values can stand only once. Like-named read-outs stand apart in the source and are kept apart here.

Columns and labels:
[1] = target: mouse heart mitochondrial membranes (complex I) (Mus musculus, UniProt P03888+P03899+Q91WD5+Q9DC70); experiment: NADH:O2 oxidoreduction by mouse heart mitochondrial membranes; assay type: biochemical; details: for LogIC50 (best fit value): log of IC50 in mM
Procedure: (§1) Complex I and mitochondrial membranes were prepared from Bos taurus (bovine) heart. Intact mitochondria were isolated from rat liver and mouse heart and liver. Membranes were prepared from mouse heart mitochondria by 5 s bursts of sonication at 4 °C and collected by centrifugation (75,000 × g, 1 h).
Assays were performed at 32 °C in a SpectraMax 96-well plate reader. NADH:decylubiquinone oxidoreduction by complex I at 0.5 μg mL^−1 was measured in 20 mM Tris-HCl (pH 7.2), 0.15 % soy bean asolectin (Avanti Polar Lipids), and 0.15 % 3-((3-cholamidopropyl)dimethylammonium)-1-propanesulfonate (CHAPS, Merck Chemicals Ltd), with 200 μM decylubiquinone and 200 μM NADH, and monitored using ε340–380(NADH) = 4.81 mM^−1 cm^−1 [23]. Catalysis was initiated by addition of NADH and maximal rates determined by linear regression. NADH:O2 oxidoreduction by membranes was measured similarly but using 5 μg mL^−1 membranes in 10 mM Tris-HCl (pH 7.4) and 250 mM sucrose using 200 μM NADH and supplemented with 0.15 mM horse heart cytochrome c (Sigma-Aldrich Ltd.). Succinate:O2 oxidoreduction was measured using 40 μg mL^−1 membranes in 5 mM succinate in 10 mM Tris-HCl (pH 7.4) as described previously. Control experiments included NaCl (to match the ionic strength) or DMSO, as appropriate.
Experimental values are reported as mean averages ± standard deviation (SD) of technical replicates for large sample sizes and mean averages ± standard error of the mean (SEM) of technical replicates for small sample sizes. Data were analyzed by the unpaired two-tailed Student’s t test. IC50 values were determined using the standard dose-effect relationship (activity (%) = 100 × IC50 / (IC50 + [inhibitor]^m) with the Hill Slope (m) set to unity for purified complex I) and are reported with 95 % confidence intervals.

[2] = tested on: permeabilized 143B cells; experiment: ADP-stimulated rotenone-sensitive OCR in permeabilized 143B cells; assay type: cell-based, human; set-up: rotenone sensitive OCR after ADP stimulation, individual replicates / rotenone sensitive OCR after ADP stimulation, average: unit not given here; details: for rotenone sensitive OCR after ADP stimulation, % of control, average / rotenone sensitive OCR after ADP stimulation, average / rotenone sensitive OCR after ADP stimulation, % of control, individual replicates / rotenone sensitive OCR after ADP stimulation, individual replicates: 143B permeabilised cells; for rotenone sensitive OCR after ADP stimulation, % of control, average / rotenone sensitive OCR after ADP stimulation, average: average of replicates; for rotenone sensitive OCR after ADP stimulation, % of control, individual replicates / rotenone sensitive OCR after ADP stimulation, individual replicates: replicate 1-11
Procedure: For permeabilized cell experiments, cells were seeded into XF96 plates at 0.9–1.1 × 10^4 per well and incubated for 48 h at 37 °C in 5 % CO2. Then, the growth medium was exchanged for assay buffer containing 3 nM plasma membrane permeabilizer ‘PMP’ (Seahorse Biosciences Inc.), 10 mM glutamate, 10 mM malate, 220 mM mannitol, 70 mM sucrose, 10 mM KH2PO4, 5 mM MgCl2, 1 mM EGTA, 0.2 % fatty acid-free bovine serum albumin (BSA), and 2 mM HEPES (pH 7.4 at 37 °C). […] The biguanides were allowed to accumulate for 30 min, then respiration was […] by the addition of 4 mM ADP. Rotenone was added (2 μM) at the end of the experiment.
Rotenone-sensitive OCRs were calculated by subtracting the rotenone-insensitive rates (determined at the end of the experiment). OCRs were normalized by dividing by the OCR recorded immediately prior to the addition of biguanide. For rate of uptake calculations, the OCRs at time points after biguanide addition were divided by the OCRs at the same time points in control experiments. Data from wells with failed port injections were excluded from the analyses. The respiratory control ratio (RCR) values (state III versus state IV respiration) were ~11 and ~6 for permeabilized MDBK and 143B cells, respectively.

[3] = tested on: mouse heart mitochondria; experiment: ADP-stimulated rotenone-sensitive OCR in isolated mouse heart mitochondria; assay type: biochemical; set-up: rotenone sensitive OCR after ADP stimulation, individual replicates / rotenone sensitive OCR after ADP stimulation, average / rotenone sensitive OCR after 15 mins, average: unit not given here; details: for rotenone sensitive OCR after ADP stimulation, % of control, average / rotenone sensitive OCR after ADP stimulation, average: average of replicates; for rotenone sensitive OCR after ADP stimulation, % of control, individual replicates: replicate 1-11; for rotenone sensitive OCR after ADP stimulation, individual replicates: replicate 1-12
Procedure: as §1
Isolated mitochondria were monitored using a Seahorse XF96 extracellular flux analyzer at 32 °C. Mouse heart mitochondria, and mouse and rat liver mitochondria were plated into XF96 plates at 4 and 16–20 μg per well, respectively, in 220 mM mannitol, 70 mM sucrose, 10 mM KH2PO4, 5 mM MgCl2, 1 mM EGTA, 0.2 % fatty acid-free BSA, and 2 mM HEPES (pH 7.4 at 37 °C) with 10 mM glutamate and 10 mM malate and adhered by centrifugation (2000 × g, 20 min, 4 °C). The medium was supplemented with a further 5 mM glutamate and 5 mM malate and the mitochondria incubated for 15 min. Then two baseline readings were taken before the biguanides were added at IC50/5. […] Rotenone (2 μM) was added at the end of the experiment. Data from wells with failed port injections were excluded from the analyses. The RCR values (state III versus state IV respiration) were 3.4, 4.8, and 4.6 for mouse heart, rat liver, and mouse liver, respectively.

[4] = tested on: acetyl-coA carboxylase (phospho-Ser79); experiment: AMPK activation, western blot of phospho-acetyl-coA carboxylase in MDBK cells; assay type: cell-based, Bos taurus; details: for ACC, average normalised to control: Averages of experiments 1-3, 18 hours; for p-ACC: band intensity
Procedure: MDBK cells were seeded at 1 × 10^6 cells per 6 cm dish in DMEM containing 10 % FBS. […] After 18 h cells were harvested by a rapid lysis procedure: cells were rinsed with PBS, then lysed using ice-cold buffer containing 50 mM HEPES, 1 mM EDTA, 10 % glycerol, 50 mM NaF, 5 mM sodium pyrophosphate, 1 % Triton-X100, 1 mM dithiothreitol (DTT), and a protease inhibitor cocktail (Roche). The cell lysate was centrifuged at 14,000 × g for 20 min at 4 °C and the protein concentration of the supernatant determined by bicinchoninic acid assay. The lysate was analyzed using Novex 3–12 % bis-Tris gels run in 3-(N-morpholino)propanesulfonic acid (MOPS) buffer (20 μg of protein per lane) followed by transfer to low fluorescence polyvinylidene fluoride membranes by wet transfer. Primary rabbit antibodies for AMPK-β (57C12), AMPK-α (phospho-Thr172) (40H9), and acetyl-coA carboxylase (phospho-Ser79) (Cell Signaling Technology) were incubated overnight with the membrane (1:1000 dilution) in Odyssey blocking buffer at 4 °C. A fluorescent secondary antibody was used (IRDYE800CW from LI-COR Biosciences, 1:20,000 dilution) with a LI-COR Odyssey imaging system.

Chain of mouse heart mitochondrial membranes (complex I) (P03899 whole entry): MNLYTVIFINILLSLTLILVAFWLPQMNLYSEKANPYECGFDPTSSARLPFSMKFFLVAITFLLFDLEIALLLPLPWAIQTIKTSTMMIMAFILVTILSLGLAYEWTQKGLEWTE
Chain of mouse heart mitochondrial membranes (complex I) (P03888 whole entry): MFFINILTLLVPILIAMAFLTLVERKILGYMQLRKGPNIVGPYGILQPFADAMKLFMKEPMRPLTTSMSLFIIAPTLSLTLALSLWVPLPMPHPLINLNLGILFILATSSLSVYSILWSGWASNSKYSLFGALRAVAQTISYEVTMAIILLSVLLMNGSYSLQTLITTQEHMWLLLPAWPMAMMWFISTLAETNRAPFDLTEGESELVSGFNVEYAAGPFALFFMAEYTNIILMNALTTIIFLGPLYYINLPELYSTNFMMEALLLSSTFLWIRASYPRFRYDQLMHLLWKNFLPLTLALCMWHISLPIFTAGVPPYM
Chain of mouse heart mitochondrial membranes (complex I) (Q9DC70 36-224): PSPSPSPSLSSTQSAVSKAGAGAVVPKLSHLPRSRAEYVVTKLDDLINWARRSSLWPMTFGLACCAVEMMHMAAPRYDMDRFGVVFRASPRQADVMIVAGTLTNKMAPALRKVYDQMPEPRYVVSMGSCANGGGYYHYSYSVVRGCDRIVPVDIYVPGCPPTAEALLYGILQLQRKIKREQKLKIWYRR
Chain of mouse heart mitochondrial membranes (complex I) (Q91WD5 34-463): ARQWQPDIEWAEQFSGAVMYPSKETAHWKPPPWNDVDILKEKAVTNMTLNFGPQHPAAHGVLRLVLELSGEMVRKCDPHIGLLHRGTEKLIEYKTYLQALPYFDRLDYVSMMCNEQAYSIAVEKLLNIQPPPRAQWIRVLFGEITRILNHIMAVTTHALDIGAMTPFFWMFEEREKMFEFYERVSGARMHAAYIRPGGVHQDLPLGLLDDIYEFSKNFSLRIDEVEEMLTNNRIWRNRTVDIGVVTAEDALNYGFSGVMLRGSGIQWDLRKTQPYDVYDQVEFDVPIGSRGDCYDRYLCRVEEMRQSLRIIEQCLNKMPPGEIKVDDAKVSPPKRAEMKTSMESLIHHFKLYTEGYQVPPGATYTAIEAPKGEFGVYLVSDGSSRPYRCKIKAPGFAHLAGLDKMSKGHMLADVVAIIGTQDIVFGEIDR

Row | SMILES | HillSlope (best fit value) ([1]; Prism variable slope fit) | LogIC50 (best fit value) ([1]; Prism variable slope fit) | rotenone sensitive OCR after ADP stimulation, % of control, average [2] | rotenone sensitive OCR after ADP stimulation, average [2] | rotenone sensitive OCR after ADP stimulation, % of control, individual replicates [2] | rotenone sensitive OCR after ADP stimulation, individual replicates [2] | rotenone sensitive OCR after ADP stimulation, % of control, average [3] | rotenone sensitive OCR after ADP stimulation, average [3] | rotenone sensitive OCR after ADP stimulation, % of control, individual replicates [3] | rotenone sensitive OCR after ADP stimulation, individual replicates [3] | ACC, average normalised to control [4] | p-ACC / AMPK beta ([4]; Experiment 1, 18 hours) | p-ACC / AMPK beta normalised to control ([4]; Experiment 1, 18 hours) | p-ACC ([4]; Experiment 1, 18 hours) | p-ACC / AMPK beta ([4]; Experiment 2, 18 hours) | p-ACC / AMPK beta normalised to control ([4]; Experiment 2, 18 hours) | p-ACC ([4]; Experiment 2, 18 hours) | p-ACC / AMPK beta ([4]; Experiment 3, 18 hours) | p-ACC / AMPK beta normalised to control ([4]; Experiment 3, 18 hours) | p-ACC ([4]; Experiment 3, 18 hours) | further results
1 | NC(N)=NC(N)=NCCc1ccc(Cl)cc1 [compound 1, 2-[2-(4-chlorophenyl)ethyl]-1-(diaminomethylidene)guanidine] | -0.8311 | -0.3323 | 10.59 % of control | 25.27 | 28.33 % of control and 12.14 % of control and 11.88 % of control and 16.92 % of control and 4.82 % of control and 10.72 % of control and 0.16 % of control and 5.78 % of control and 8.84 % of control and 6.27 % of control | 67.63 and 28.97 and 28.36 and 40.38 and 11.50 and 25.59 and 0.37 and 13.80 and 21.11 and 14.98 | 42.96 % of control | 104.05 | 59.58 % of control and 56.94 % of control and 47.63 % of control and 43.78 % of control and 42.25 % of control and 48.37 % of control and 28.35 % of control and 16.80 % of control | 144.30 and 137.90 and 115.35 and 106.02 and 102.33 and 117.15 and 68.67 and 40.69 | 9.49 | 1.85 | 9.53 | 848 | 2.03 | 12.57 | 727 | 1.89 | 6.35 | 483 | IC50 ([1]; Prism variable slope fit, Bottom 0, Top 100, read-out: IC50 (best fit value)): 465 µM; remaining activity at 130 µM ([1]; inhibitor 0.13 mM, read-out: average % (rate, % of no-inhibitor control)): 75.2%; remaining activity at 250 µM ([1]; inhibitor 0.25 mM, read-out: average % (rate, % of no-inhibitor control)): 62.1%; remaining activity at 500 µM ([1]; inhibitor 0.50 mM, read-out: average % (rate, % of no-inhibitor control)): 47.6%; remaining activity at 1000 µM ([1]; inhibitor 1.00 mM, read-out: average % (rate, % of no-inhibitor control)): 36.7%; remaining activity at 2500 µM ([1]; inhibitor 2.50 mM, read-out: average % (rate, % of no-inhibitor control)): 19.7%; remaining activity at 5000 µM ([1]; inhibitor 5.00 mM, read-out: average % (rate, % of no-inhibitor control)): 9.86%; remaining activity at 10000 µM ([1]; inhibitor 10.00 mM, read-out: average % (rate, % of no-inhibitor control)): 8.63%
2 | N=C(N)NC(N)=Nc1ccccc1 [compound 2, phenyl biguanide] | -1.093 | -0.05416 | 76.10 % of control | 181.66 | 64.11 % of control and 81.27 % of control and 71.75 % of control and 89.78 % of control and 64.02 % of control and 84.74 % of control and 60.92 % of control and 78.85 % of control and 104.39 % of control and 61.15 % of control | 153.03 and 194.01 and 171.28 and 214.31 and 152.84 and 202.30 and 145.43 and 188.22 and 249.19 and 145.97 | 107.96 % of control | 261.48 | 135.56 % of control and 93.15 % of control and 89.18 % of control and 125.36 % of control and 159.10 % of control and 52.24 % of control and 102.54 % of control and 106.56 % of control | 328.33 and 225.59 and 215.99 and 303.61 and 385.34 and 126.52 and 248.35 and 258.08 | 1.20 | 0.25 | 1.30 | 118 | 0.22 | 1.36 | 75.8 | 0.28 | 0.93 | 59.9 | IC50 ([1]; read-out: IC50 (best fit value), Prism variable slope fit, Bottom 0, Top 100): 883 µM; inhibition of the OCR (in words) ([2]; permeabilized 143B cells, biguanide concentration equal to IC50): only limited inhibition
